This test concerns the target T1, Human ADA (Homo sapiens, UniProt P00813).
T1 construct: made in house
T1 sequence (P00813 1-363): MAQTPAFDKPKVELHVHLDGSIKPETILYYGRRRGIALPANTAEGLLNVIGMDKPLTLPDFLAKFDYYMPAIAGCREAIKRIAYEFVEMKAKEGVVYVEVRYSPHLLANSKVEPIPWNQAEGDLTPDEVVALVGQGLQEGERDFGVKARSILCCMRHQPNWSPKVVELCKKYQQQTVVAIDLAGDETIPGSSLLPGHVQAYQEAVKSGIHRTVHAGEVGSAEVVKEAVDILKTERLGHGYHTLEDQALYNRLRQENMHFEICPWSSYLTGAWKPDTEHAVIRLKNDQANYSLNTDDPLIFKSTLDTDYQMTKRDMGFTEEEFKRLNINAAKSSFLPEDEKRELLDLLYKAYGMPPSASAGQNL
As to the kind of experiment: Adenosine Deaminase (ADA) Enzyme Assay. The format is biochemical. Conditions: 0.16 μg/ml ADA, 0.1 mM adenosine, 10 mM phosphate buffer saline pH 7.4, room temperature, decrease in A265 for 3 minutes. On the procedure:
Adenosine Deaminase (ADA) Enzyme Assay
• 1-{(3R,4S)-4-Hydroxy-1-[2-(4-ethoxyphenyl)-4-benzoxazolyl]-3-pentyl}-imidazole-4-carboxamide hydrochloride (E0023) • 1-{(3R,4S)-4-Hydroxy-1-[2-(2-thienyl)-7-benzoxazolyl]-3-pentyl}-imidazole-4-carboxamide hydrochloride (E0028) Test Method:
The reaction velocity (V) is measured by a change in absorbance at 265 nm (A265) resulting from the deamination of adenosine. Human ADA was expressed and purified from ADA-deficient bacterial strain. Reaction mixtures of a total volume of 200 μl contained 0.16 μg/ml of ADA and 0.1 mM of adenosine and test compound in 10 mM phosphate buffer saline (pH 7.4). The reaction was started by addition of ADA to a mixture of adenosine and test compound. The reaction was followed at room temperature by recording decrease in A265 for 3 minutes in SPECTRAmax 250 (Molecular Devices, USA) to automatically calculate Vmax. Inhibitory potency of test compound was expressed as IC50 value, the drug concentration required to produce 50% inhibition of Vmax in comparison to vehicle treatment.

Structures can show the parent of a compound that is named as a salt.

For `CCOc1ccc(-c2nc3c(CC[C@H]([C@H](C)O)n4cnc(C(N)=O)c4)cccc3o2)cc1` [Compound E0023, 1-{(3R,4S)-4-Hydroxy-1-[2-(4-ethoxyphenyl)-4-benzoxazolyl]-3-pentyl}imidazole-4-carboxamide hydrochloride], the IC50 was < 0.02 µM.

Regarding `C[C@H](O)[C@@H](CCc1cccc2nc(-c3cccs3)oc12)n1cnc(C(N)=O)c1` [Compound E0028, 1-{(3R,4S)-4-Hydroxy-1-[2-(2-thienyl)-7-benzoxazolyl]-3-pentyl}imidazole-4-carboxamide hydrochloride], the IC50 was < 0.02 µM.

The record behind these values is patent US7317107B2, “Imidazole 4-carboxamide compounds with adenosine deaminase inhibiting activity” (Astellas Pharma Inc., priority 2002, dated 2008).
